Data published in patent US10886008B2, “Methods and systems for determining the biological age of samples” (Spring Discovery, Inc., priority 2018, dated 2021).

Tests used:
mouse myoblast cells = assay: In vitro cell-based drug screening of mouse myoblast cells with machine-learning biological age prediction; design: species or system C57BL/6J mice; conditions: for Change relative to control: average predicted age of treatment vs vehicle control wells on the same plate, concentrations of Table 8; for Average predicted age of treatment (months): primary myoblasts, concentrations of Table 8: Oxytocin 30 nM, TGFbeta 10 ng/mL, Wnt3a 100 ng/ml, Klotho 0.5 μg/mL, ALK5 inhibitor II 0.5 μM, PP242 300 nM, stained 48 hours post-plating
Description: The machine learning systems and methods for predicting biological age were applied toward accelerating drug screens designed to detect interventions that slow or reverse one or more phenotypes of aging. Such a drug screening approach was tested using proof-of-concept drug screens, including an in vitro drug screening experimental model. This machine learning-based drug screening approach for aging-related therapies is described below. The machine learning-based mouse myoblast cellular aging approach was used to test an in vitro screening model for detecting anti-aging molecules for myoblasts.
The myoblast cell screening was run in parallel with the myoblast biological age prediction described in Example 3, and the same processes for primary cell acquisition, preparation, processing, and image acquisition steps were performed as described in Example 3.
For myoblast screening, replicate 384-well plates were dedicated to testing compound treatments (Treatment Plates) and were seeded with primary myoblasts, replicating the same plate layout as the myoblast age prediction experiment described in Example 3.
For the Treatment Plates, after the cells adhere to the plate (around 2 hours post-plating) the media was changed. For each set of 10 replicate wells from each primary myoblast line, 4 of the wells received media supplemented with vehicle control, 3 wells received media supplemented with one test compound, and 3 wells received media supplemented with another test compound. In this manner, each Treatment Plate was used to test two different compounds, and three Treatment Plates were used in total to test six different compounds.
All Treatment Plates were fed 24 hours post-plating with myoblast growth media supplemented with drugs or their respective vehicle control.
As mentioned, the plates are handled, processed, and stained in the same way as described in the myoblast biological age prediction described in Example 3. Briefly, these plates were stained for EdU, desmin, ER cytopainter, and counterstained with Hoechst.
Next, the data were prepared using a similar process as that described in Example 3. This created a treatment dataset that was analyzed using a previously generated aging model, which was trained on the aging dataset that was generated as described in Example 3.
Next, the data was analyzed using a similar deep convolutional neural network architecture and the machine learning analysis approach described in Example 1. First, the deep convolutional neural network architecture was trained using the aging dataset and the machine learning analysis approach described in Example 1. Performing this training yields a final set of weights to use with the neural network for the treatment analysis. Second, the effects of the treatments were analyzed by applying the generated neural network to the entirety of the treatment dataset. This is subsequently referred to as a “transference” of the aging model to the treatment data.
Next, as described in Example 6, average age predictions for each mouse were produced by predicting the biological age classification for each tile and averaging all tiles' predictions together. This calculation was performed for all three folds of the data, and those average predictions were then averaged together again. This produced a single numerical biological age prediction for each mouse, which was compared to control.
Next, as described in Example 6, p-values were calculated using the Kolmogorov-Smirnov test to assess the statistical difference of the distributions of age predictions for each compound versus control. Note that in this case, because there are multiple plates being tested, each with different test compounds, each compound is compared only to the control wells on its own plate, thereby resulting in different control values for each compound, as shown in Table 9.

mouse skin tissue = assay: In vivo tissue-based drug screening of mouse skin tissue with machine-learning biological age prediction; design: species or system C57BL/6J mice; conditions: daily topical application for 61 days
Description: The machine learning systems and methods for predicting biological age were applied toward accelerating drug screens designed to detect interventions that slow or reverse one or more phenotypes of aging. Such a drug screening approach was tested using proof-of-concept drug screens, including an in vivo drug screening experimental model. This machine learning-based drug screening approach for aging-related therapies is described below. The machine learning-based skin tissue aging modeling approach was used to test an in vivo screening system for detecting topical anti-aging interventions on mouse skin.
Mouse skin tissue samples were acquired and prepared as follows. Skin samples were collected from 75 healthy C57BL/6J mice in five separate groups: 15 mice in a control group were 10 months old (“Control 1”), 15 mice in another control group were 14 months old (“Control 2”), 15 mice in a third control group were 18 months old (“Control 3”), and two independent treatment groups comprised 18-month-old mice (“Test Article 1” and “Test Article 2”). Each treatment group included 15 mice given a daily topical application for 61 days, as detailed below. All mouse ages are referenced from the start of the experiment.
The mice were shaved as necessary on a weekly basis in order to enable daily topical application on the back of the mice. […]

Compound	Change relative to control (mouse myoblast cells) [%]	Average predicted age of treatment (months) (mouse myoblast cells)	Average predicted age (months) (mouse skin tissue; 18-month-old mice, HES-stained skin biopsies, averaged over tiles, three folds and mice)	Change relative to control group (mouse skin tissue; average predicted age vs control group (averaged across control groups 1-3)) [%]
Cc1cccc(-c2[nH]ncc2-c2ccc3ncccc3n2)n1 [ALK5 inhibitor II]	−14.13	56.22		
CC[C@H](C)[C@@H]1NC(=O)[C@H](Cc2ccc(O)cc2)NC(=O)[C@@H](N)CSSC[C@@H](C(=O)N2CCC[C@H]2C(=O)N[C@@H](CC(C)C)C(=O)NCC(N)=O)NC(=O)[C@H](CC(N)=O)NC(=O)[C@H](CCC(N)=O)NC1=O [Oxytocin]	−0.92	67.66		
CC(C)n1nc(-c2cc3cc(O)ccc3[nH]2)c2c(N)ncnc21 [PP242]	−17.14	56.16		
CC1=C(/C=C/C(C)=C/C=C/C(C)=C/C(=O)O)C(C)(C)CCC1 [Test Article 1, All Trans Retinoic Acid]			15.9	−7.28
Wnt3a	−5.04	64.11		
